Measurements as given in US20060141044A1, “Pharmaceutical compositions based on diclofenac derivate” (priority 2003, published 2006).

Experiment: Aqueous solubility / Biopharmaceutical Classification System classification
Type: physicochemical
Text: 2-[2-(nitrooxy)ethoxy]ethyl {2-[(2,6-dichlorophenyl)amino]phenyl}acetate is a lipophilic drug with poor aqueous solubility and a low melting point. Said drug can be classified into class 2 according to the Biopharmaceutical Classification System proposed by Amidon et al. (Pharm. Res. 12 (1995) pp. 413420). Compounds of this class are characterised by their low aqueous solubility but reasonably well permeability. A biopharmaceutical problem with these drugs is that their absorption from the gastro-intestinal tract (GIT) may be dissolution rate limited, resulting in poor bioavailibility upon oral administration. One object of the invention is to provide an oral drug delivery composition with satisfactory bioavailability.

Question: Which results are given for O=C(Cc1ccccc1Nc1c(Cl)cccc1Cl)OCCOCCO[N+](=O)[O-] [2-[2-(nitrooxy)ethoxy]ethyl {2-[(2,6-dichlorophenyl)amino]phenyl}acetate]?
Answer: aqueous solubility (qualitative statement): poor; class according to the Biopharmaceutical Classification System (system proposed by Amidon et al.): class 2
